The source of these data is patent US8202910B2 (Sequella, Inc., priority 2006, dated 2012).

Values joined by “and” are separate entries in the source; they are usually repeats but may differ in a detail not shown here. Identical values can stand only once. Like-named read-outs stand apart in the source and are kept apart here.

Series [1] deals with H37Rv strain of Mycobacterium tuberculosis. Nature of the series: microbe, parasite or virus in culture. The series is classed as cell-based.
Series [2] relates to monkey kidney cells (Vero). In words: In vitro toxicity, Vero cells. The series is classed as cell-based. The following applies: Primates. On the procedure: Twenty six compounds (including 37, 59 and 109) were tested in an in vitro model of toxicity using monkey kidney cells (Vero) and human cervical cancer cells (HeLa) using methods well known to those skilled in the art. The data from this toxicity testing and the MIC data were used to calculate a selectivity index (SI), the ratio of IC50:MIC (Table 15). Selectivity Indexes were ranging from 1.76 to 16.67.

The next series has as its system M. tuberculosis H37Rv. In words: In vivo efficacy, mice infected i.v. with M. tuberculosis, CFU in spleen and lungs. The arrangement: species or system C57BL/6 mice. The settings on record: 1 mg/kg and 10 mg/kg; 5×10^5 CFU, chemotherapy from day 20.
A further series concerns cells. Nature of the series: LD50 for selectivity index (Table 10). The series is classed as cell-based, Mycobacterium tuberculosis. The settings on record: for SI (Selectivity Index): LD50 : MIC. The source says: Table 10 lists MIC and LD50 data for selected compounds. […] Table 11 lists MIC data for purified substituted ethylene diamines in comparison to ethambutol (EMB).

Where [3] appears, read: Mycobacterium tuberculosis, H37RV, read-out: MIC.
The mark [4] stands for this setting: Mycobacterium tuberculosis, H37RV, Table 15, read-out: MIC.
[5] abbreviates: Mycobacterium tuberculosis, H37RV, Table 10, from uM and MW, read-out: MIC.
Where [6] appears, read: Mycobacterium tuberculosis, H37RV, Table 10, read-out: MIC.
[7] abbreviates: concentration at which 50% of the cells are killed.

Regarding `COc1ccc(CCNCCNCC23CC4CC(CC(C4)C2)C3)cc1OC` [Compound 4], the “MIC” value turned out to be 62.5 µM in series [1] and 125 µM in series [1] (setting [3]).

For `C(CNC1C2CC3CC(C2)CC1C3)NC1C2CC3CC(C2)CC1C3` (centres unmarked) [SQBisAd, Bis(2-Adamantyl)ethylenediamine], in series [1], the “MIC (Minimal Inhibitory Concentration) compared with compound 109” value was “equal or better than compound 109”.

Consider `CC[C@@H](CO)NCCNC1CCCCCCC1` [Compound 56, N-(Cyclooctyl)-N′-(2S)-[2-(1-hydroxybutyl)]ethane-1,2-diamine], for which the “MIC” value in series [1] is above 500 µM; in series [1] (setting [3]), 500 µM.

For the molecule `COc1ccccc1CCNCCNC1C2CC3CC(C2)CC1C3` (centres unmarked) [Compound 73, N-(2-Adamantyl)-N′-[2-(2-methoxyphenyl)ethyl]ethane-1,2-diamine], the MIC in series [1] (setting [4]) was determined as 12.5 µM. This molecule displayed an IC50 in series [2] of 81 µM. The “activity in the spleen compared with EMB” value in the series with M. tuberculosis H37Rv is reported as “equal to that of EMB at 100 mg/kg”.

For `C[C@@H]1C2C[C@@H](C[C@H]1NCCNC(c1ccccc1)c1ccccc1)C2(C)C` [Compound 71, N-(1,1-Diphenylmethyl)-N′-(1R, 2R, 3R, 5S)-(−)-isopinocampheylethane-1,2-diamine], the figures for the “MIC” value in series [1] and in series [1] (setting [3]) were 31.25 µM and 62.5 µM, respectively.

Regarding `CC(CNCCC(c1ccccc1)c1ccccc1)NCC12CC3CC(CC(C3)C1)C2` (centres unmarked) [Compound 6], the values for the MIC in series [1] (setting [5]) and in series [1] (setting [6]) were 4.19 µg/mL and 7.81 µM, respectively. In addition, the “SI (Selectivity Index)” value in the series with cells was 2.56. In addition, the “LD50” value in the series on cells (setting [7]) was 20 µM; in the series on cells (from uM and MW) it was 10.72 µg/mL.

With `c1ccc(C2CC2NCCNC23CC4CC(CC(C4)C2)C3)cc1` (stereo not drawn) [Compound 65, N-(1-Adamantyl)-N′- trans-(2-phenylcyclopropyl)ethane-1,2-diamine], the “MIC” value is 31.25 µM in series [1], 6.72 µg/mL in series [1] (setting [5]), 15.6 µM in series [1] (setting [6]) and 15.6 µM in series [1] (setting [3]). For the same molecule, the “SI (Selectivity Index)” value in the series with cells stood at 3.84. For the same molecule, the “LD50” value came out at 60 µM with cells (setting [7]); 25.8 µg/mL in the series on cells (from uM and MW).

As for `c1ccc(C(CNCCNCC23CC4CC(CC(C4)C2)C3)c2ccccc2)cc1` [Compound 34, N-(2,2-Diphenylethyl)-N′-(1-methyladamantyl)ethane-1,2-diamine], the MIC in series [1] (setting [5]) stood at 3.97 µg/mL; in series [1] (setting [6]), 7.81 µM. Moreover, in the series on cells, the “SI (Selectivity Index)” value stood at 4.096. Further, the “LD50” value in the series with cells (setting [7]) worked out at 32 µM; with cells (from uM and MW) it was 16.256 µg/mL.

Take `c1ccc(C2CC2NCCNC2C3CC4CC(C3)CC2C4)cc1` (stereo not drawn) [Compound 64, N-(2-Adamantyl)-N′- trans-(2-phenylcyclopropyl)ethane-1,2-diamine]: the MIC in series [1] (setting [3]) stood at 31.2 µM.

In the case of `CCC(CO)NCCN[C@@H]1C[C@@H]2CC([C@H]1C)C2(C)C` (mixture of isomers) [Compound 68], in series [1] (setting [3]), the MIC stood at 500 µM.

For the molecule `CC1(C)C2CCC(CNCCNC3CCCCCCC3)[C@@H]1C2` (stereo partly drawn) [Compound 57, N-(−)-cis-Myrtanyl-N′-(cyclooctyl)ethane-1,2-diamine], the MIC in series [1] (setting [5]) amounted to 6.66 µg/mL; in series [1] (setting [6]), 15.6 µM; in series [1] (setting [4]) it was 11.7 µM. Moreover, the “SI (Selectivity Index)” value in the series on cells is listed as 1.152. The “LD50” value came to 18 µM with cells (setting [7]); 7.668 µg/mL with cells (from uM and MW). For the same molecule, half-maximal inhibition in series [2] (IC50) was put at 22 µM.

For `C1CCCC(NCCNCC23CC4CC(CC(C4)C2)C3)CCC1` [Compound 55, N-(Cyclooctyl)-N′-(1-methyladamantyl)ethane-1,2-diamine], the “MIC” value in series [1] was 15.625 µM and 15.6 µM; in series [1] (setting [4]), 15.6 µM; in series [1] (setting [3]) it was 15.6 µM. Besides, in series [2], inhibition was half-maximal at 34 µM (IC50).

Regarding `C[C@@H]1C2C[C@@H](C[C@H]1NCCNCC1CCC3C[C@@H]1C3(C)C)C2(C)C` (stereo partly drawn) [Compound 47, N-(−)-cis-Myrtanyl-N′-(1R, 2R, 3R, 5S)-(−)-isopinocampheylethane-1,2-diamine], the MIC came to 7.06 µg/mL in series [1] (setting [5]) and 15.6 µM in series [1] (setting [6]). Moreover, the “SI (Selectivity Index)” value in the series on cells amounted to 1.6. Further, the “LD50” value with cells (setting [7]) turned out to be 25 µM; with cells (from uM and MW), 11.3 µg/mL.

In the case of `C[C@@H]1[C@@H](NCCNC2CCCCCCC2)C[C@H]2C[C@@H]1C2(C)C` [Compound 53, N-Cyclooctyl-N′-(1S, 2S, 3S, 5R)-(+)-isopinocampheyl-ethane-1,2-diamine], in series [1] (setting [3]), the MIC was determined as 31.2 µM.

Regarding `CC1CC(C)CN(CCNCCC(c2ccccc2)c2ccccc2)C1` (centres unmarked) [Compound 15, 1-{2-[N-(3,3-Diphenylpropyl)]-aminoethyl}-3,5-dimethyl-piperidine], the “MIC” value in series [1] was 250 µM and 500 µM; in series [1] (setting [3]) it was above 500 µM.

As to `c1ccc2c(c1)CC(NCCNC1C3CC4CC(C3)CC1C4)C2` (centres unmarked) [Compound 78, N-2-Adamantyl-N′-2,3-dihydro-1H-inden-2-yl-ethane-1,2-diamine], the MIC in series [1] (setting [4]) was 15.6 µM. This molecule yielded an IC50 in series [2] of 130 µM.

Consider `C1CCCC(NCCNC2CCCCCCC2)CCC1` [Compound 103, N,N′-Bis(cyclooctyl)ethane-1,2-diamine], for which the figures for the “MIC” value in series [1] and in series [1] (setting [3]) were 62.5 µM and 31.2 µM, respectively.

Take `CCOCCCNCCNCC(c1ccccc1)c1ccccc1` [Compound 107]: the “MIC” value in series [1] was 250 µM; in series [1] (setting [3]), 500 µM.

`CC(CNC[C@@H]1CCC2C[C@@H]1C2(C)C)NCC1CCC2C[C@@H]1C2(C)C` (stereo partly drawn) [Compound 125, N,N′-bis-(−)-cis-Myrtanylpropane-1,2-diamine]: the “MIC” value is 15.625 µM in series [1] and 15.6 µM in series [1] (setting [3]).

On to `c1ccc(C2CC2NCCNC2CCCCCCC2)cc1` (stereo not drawn) [Compound 63, N-(Cyclooctyl)-N′-trans-(2-phenylcyclopropyl)ethane-1,2-diamine], for which the “MIC” value in series [1] came out at 31.25 µM; in series [1] (setting [3]), 62.5 µM.

Regarding `Fc1cccc(CCNCCNCCc2ccccc2Cl)c1` [Compound 119, N-2-(2-Chlorophenyl)ethyl-N′-[2-(3-fluorophenyl)-ethyl]ethane-1,2-diamine], the “MIC” value in series [1] was 62.5 µM; in series [1] (setting [3]), 125 µM.

Regarding `CC1CCCC(NCCNC[C@@H]2CCC3C[C@@H]2C3(C)C)C1C` (stereo partly drawn) [Compound 41, N-(−)-cis-(Myrtanyl)-N′-(2,3-dimethylcyclohexyl)ethane-1,2-diamine], the MIC in series [1] (setting [4]) was found to be 3.13 µM. This molecule came in with an IC50 in series [2] of 19 µM.

With `CC(NCCNC1CCCCCCC1)c1cccc2ccccc12` (centres unmarked) [Compound 61], the “MIC” value in series [1] was 31.25 µM; in series [1] (setting [3]), 62.5 µM.

In the case of `C=CCN(CCNCCc1ccccc1Cl)C1CCCC1` [Compound 118, N-2-(2-Chlorophenyl)ethyl-N′-allyl-N′-(cyclopentyl)ethane-1,2-diamine], the “MIC” value in series [1] came to 62.5 µM; in series [1] (setting [3]) it was 31.2 µM.

Turning to `CC(NCCNCC(c1ccccc1)c1ccccc1)C(O)c1ccc(O)c(O)c1` (stereo not drawn) [Compound 134, N-[2-(N′-2,2-Diphenylethyl)-aminoethyl]-(−)-3,4-dihydroxynorephedrine], the results for the “MIC” value in series [1] and in series [1] (setting [3]) were 500 µM and above 500 µM, respectively.

As to `C[C@@H]1C2C[C@@H](C[C@H]1NCCNCCC(c1ccccc1)c1ccccc1)C2(C)C` [Compound 66, N-(3,3-Diphenylpropyl)-N′-(1R, 2R, 3R, 5S)-(−)-isopinocampheylethane-1,2-diamine], the MIC in series [1] (setting [4]) was 15.6 µM. This molecule also displayed an IC50 in series [2] of 28 µM.

Consider `COc1ccc(CCNCC(NCCc2ccc(F)cc2)c2ccccc2)cc1` (centres unmarked) [Compound 164, N^1-[2-(4-fluorophenyl)ethyl]-N^2-[2-(4-Methoxy)phenylethyl)-1-phenylethane-1,2-diamine], for which the entries for the “MIC” value in series [1] and in series [1] (setting [3]) were 125 µM and 62.5 µM, respectively.

Consider `COc1ccccc1CCNCCN[C@@H]1C[C@@H]2CC([C@H]1C)C2(C)C` [Compound 151, N-[2-(2-Methoxy)phenylethyl]-N′-(1R, 2R, 3R, 5S)-(−)-isopinocampheyl-ethane-1,2-diamine], for which the “MIC” value stood at 7.813 µM in series [1], 3.52 µg/mL in series [1] (setting [5]), 7.81 µM in series [1] (setting [6]) and 15.6 µM in series [1] (setting [3]). In the series on cells, the “SI (Selectivity Index)” value is recorded as 5.248. Moreover, the “LD50” value in the series on cells (setting [7]) was 41 µM; with cells (from uM and MW), 18.45 µg/mL.

With `CC1CCCC(NCCNCC(c2ccccc2)c2ccccc2)C1C` (centres unmarked) [Compound 29, N-(2,2-Diphenylethyl)-N′-(2,3-dimethylcylcohexyl)ethane-1,2-diamine], the figures for the “MIC” value in series [1] and in series [1] (setting [3]) were 31.25 µM and 62.5 µM, respectively.

Take `CC(CNCC(c1ccccc1)c1ccccc1)NCC1CCC2C[C@@H]1C2(C)C` (stereo partly drawn) [Compound 38, N-(−)-cis-(Myrtanyl)-N′-(2,2-diphenylethyl)propyl-1,2-diamine]: in series [1] (setting [4]), the MIC was 6.25 µM. In series [2], this molecule yielded an IC50 of 33 µM.

On to `C=CCN(CCNCCc1ccccc1OC)C1CCCC1` [Compound 76, N-Allyl-N-cyclopentyl-N′-[2-(2-methoxyphenyl)ethyl]ethane-1,2-diamine], for which the “MIC” value amounted to 31.25 µM in series [1] and 62.5 µM in series [1] (setting [3]).

Turning to `C[C@@H]1C2C[C@@H](C[C@H]1NCCNCC(c1ccccc1)c1ccccc1)C2(C)C` [Compound 40, N-(2,2-Diphenylethyl)-N′-(1R,2R,3R,5S)-(−)-isopinocampheylethane-1,2-diamine], the MIC in series [1] (setting [4]) came out at 15.6 µM. The molecule also had an IC50 in series [2] of 25 µM.

With `CC(C)(C)CC(C)(C)NCCNCC(c1ccccc1)c1ccccc1` [Compound 33, N-(2,2-Diphenylethyl)-N′-(1,1,3,3-tetramethylbutyl)-ethane-1,2-diamine], the “MIC” value in series [1] was 31.25 µM; in series [1] (setting [3]), 62.5 µM.

As usually defined, the IC50 is the concentration needed to halve the response being measured.
